Reference: patent US20210275562A1, “CANCER TREATMENT METHODS” (priority 2020, published 2021)

Key:
S phase cells = test: BRDU/EDU injection labelling of S phase cells in living animals; format: in vivo, mouse
Excerpt: It has been estimated in the literature that the cell cycle would be between 12 hr and 2 days in the crypt cells of the gut. These are the cells that are constantly dividing and give rise to mature gut cells forming the lining of the intestinal tract. […] Both EDU and BRDU are incorporated only into DNA of cells actively synthesizing DNA, S phase cells. Both are rapidly removed from circulation if not incorporated into DNA, so that a cell containing EDU or BRDU in its DNA would have been in S phase at the time of injection, or shortly thereafter. Indeed, an injection of either marker is effectively a 1 hr pulse with that marker. BRDU is identified with an antibody stain, while EDU is identified by a separate chemical stain. Different fluorochromes are used to identify the two stains, so that cells which incorporated either, or both, can readily be identified. With the use of our image analysis approach, the labeling with each fluorochrome can be accurately quantitated.
Thus, with EDU and BRDU, it was possible to determine which cells had been in S phase at two different times. BRDU was normally injected intraperitoneally (IP) into animals at time zero. […] 40 minutes following the EDU injection the animals were euthanized and tissues collected, imbedded in paraffin, and stained. It was possible to tell which cells had been in S phase at the beginning of the experiment from the BRDU stain. […]

crypt cells = test: Proof of principle: two EDU injections in mice given BRDU in drinking water; format: in vivo, mouse
Experimental: The experiment to validate this procedure was designed as follows: Mice were given BRDU in their drinking water at the beginning of the experiments. This constant supply of BRDU would label all proliferative cells over the length of the experiment. 4 hr after BRDU-containing drinking water was given to the animals, two injections of EDU were given. These injections were spaced 5, 8, 11, 14, 17, and 20 hr apart in separate animals. At 40 min following the final injection tissue was collected, fixed, imbedded, stained, and analyzed as described above. The goal was to determine how many cells were labeled with BRDU and NOT WITH EDU. EDU in this experiment represents the toxic treatment. Any cell labelled with EDU would be expected to be killed by the appropriate S phase specific toxin. The surviving cells would, therefore, be identified by BRDU positive, EDU negative cells. As with many proof of principle experiments, this one has a drawback that must be considered. BRDU remains present in cells that differentiate and move up the villi towards the lumen of the gut. Cells on the verge of terminal differentiation would be labelled with BRDU but cease dividing prior to the administration of EDU. This would result in an over-estimate of the number of BRDU+ and EDU− cells (those that survive the treatments), particularly at later times in the analysis. […]

| effective pulse length of the marker after one injection (S phase cells; mouse, in vivo) | SMILES | effective pulse length of the marker after one injection (S phase cells; rapidly removed from circulation if not incorporated into DNA) | BRDU positive cells remaining unlabeled with EDU (cells proposed to survive treatment) (crypt cells; two EDU injections spaced 14 hr apart) | level of BRDU+ and EDU- cells (cells proposed to survive treatment) (crypt cells; two EDU injections spaced 17 hr apart, may be overestimated) |
| --- | --- | --- | --- | --- |
| 1 h | O=c1[nH]c(=O)n([C@H]2C[C@H](O)[C@@H](CO)O2)cc1Br [BRDU, bromodeoxyuridine] | – | – | – |
| – | C#Cc1cn([C@H]2C[C@H](O)[C@@H](CO)O2)c(=O)[nH]c1=O [EDU, 5-ethynyl-2′-deoxyuridine] | 1 h | ~40% | remain high |
